Laboratory results as given in patent US20060223117A1, “Novel splice variants of human epithelial sodium channel genes expressed in human taste tissue and uses thereof” (SENOMYX, INC., priority 2005, published 2006).
Entries after “also recorded” stand apart in the source; their conditions may differ.

How the values were obtained:
perceived salt intensity = assay: Senomyx human taste experiments, perceived salt intensity; type: in vivo
[1] = tested on: intensity of sodium chloride; settings: humans; concentrations that specifically inhibit ENaC function; cited from earlier work

NC(=Nc1ccccc1)NC(=O)c1nc(Cl)c(N)nc1N [phenamil]
effect on perceived salt intensity (perceived salt intensity; tested at levels 3000-fold (printed: for benzamil) above IC50 values in oocytes): did not demonstrate a significant effect
effect on perceived salt intensity (perceived salt intensity; tested at levels 3000-fold (printed: for benzamil) above IC50 values in oocytes, listed as phenomil): did not exhibit a significant effect

N=C(N)NC(=O)c1nc(Cl)c(N)nc1N [amiloride]
reduction of the intensity of sodium chloride [1]: 15-20%
effect on perceived salt intensity (perceived salt intensity; tested at levels 300-fold above IC50 values in oocytes): did not exhibit a significant effect; also recorded: did not demonstrate a significant effect
